Where a name gives a salt, the structure may show the parent alone.
Columns and labels:
[1] = target: T1, human NK2 receptor expressed in Mouse Erythroleukemia (MEL) cells (Homo sapiens, UniProt P21452); test: Neurokinin A (NKA) Receptor-binding Assay (Test A)
T1 construct: expressed in transfected cells; host or cells: Mouse Erythroleukemia (MEL) cells
T1 sequence (P21452 1-398): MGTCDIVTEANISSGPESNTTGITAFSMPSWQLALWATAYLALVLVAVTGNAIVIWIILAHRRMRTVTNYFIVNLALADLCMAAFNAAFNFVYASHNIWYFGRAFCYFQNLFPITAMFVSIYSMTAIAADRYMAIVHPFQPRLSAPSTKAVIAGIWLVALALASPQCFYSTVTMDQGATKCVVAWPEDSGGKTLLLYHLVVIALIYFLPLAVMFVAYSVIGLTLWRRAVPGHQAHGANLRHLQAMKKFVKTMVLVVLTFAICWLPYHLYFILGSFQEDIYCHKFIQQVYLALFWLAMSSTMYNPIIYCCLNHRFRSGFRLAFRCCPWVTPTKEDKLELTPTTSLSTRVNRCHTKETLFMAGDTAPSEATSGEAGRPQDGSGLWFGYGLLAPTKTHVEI
Excerpt: Neurokinin A (NKA) Receptor-binding Assay (Test A)

[2] = tested on: guinea pig trachea; test: Guinea Pig Assay (Test B): functional assay in guinea pig trachea, antagonism of agonist NKA or [b-ala^8]-NKA(4-10); type: cell-based; conditions: Cavia porcellus, read-out: pKB in Test B (converted)
Excerpt: Guinea Pig Assay (Test B)

| SMILES | Ki [1] | Kb [2] |
| --- | --- | --- |
| OC1(c2ccccc2)CCN(CCC(Cn2ccnc2-c2ccccc2)c2ccc(Cl)c(Cl)c2)CC1 (centres unmarked) [Example 2, 1-[3-(3,4-Dichlorophenyl)-4-(2-phenylimidazol-1-yl)butyl]-4-hydroxy-4-phenylpiperidine dihydrochloride] | 23 nM |  |
| O=C1NCCCN1C1CCN(CCC(Cn2cnnc2-c2ccccc2)c2ccc(Cl)c(Cl)c2)CC1 (centres unmarked) [Example 3, 1-[1-[3-(3,4-Dichlorophenyl)-4-(2-phenyl-1,3,4-triazol-1-yl)butyl]piperidin-4-yl]tetrahydropyrimidin-2-one hydrochloride] |  | 2 nM |

From patent US6355695B1, “Substituted heterocycles” (Zeneca Limited, priority 1995, dated 2002)
